Results on one compound are retold here after patent US20210179655A1, “Prodrugs of a JAK Inhibitor Compound for Treatment of Gastrointestinal Inflammatory Disease” (THERAVANCE BIOPHARMA R&D IP, LLC, priority 2015, published 2021).

Series [1] in a line: Metabolic stability in homogenates from rat upper and lower intestinal content. Type of series: in vitro ADME. To be noted: 37° C.; for half-life: 10 μM; for half-life at 10 μM: rat, diluted 1:10 in DPBS. On the procedure:
The conversion of compound 1 to tofacitinib was evaluated in the intestinal lumen content prepared from the various GI segments isolated from freshly sacrificed rats. Each segment of content from the duodenum, jejunum, ileum, and colon was diluted 1:10 in Dulbecco's phosphate buffer saline (DPBS) solution. […] The incubation was conducted in a water bath at 37° C. and time points were taken at 0, 5, 10, 20, 40 and 60 min. The total incubation volume was 400 μL and 40 μL aliquots were taken at each time point and diluted into 160 μL of 97% ACN+3% formic acid+an internal standard. The samples were centrifuged at 2200 rcf for 10 min and 50 μL of supernatant was diluted into 150 μL of water+1% formic acid.

Series [2] is described as follows: Oral pharmacokinetics of compound 1 in cynomolgus monkey. Type of series: in vivo. Conditions: oral administration of the prodrug.
Series [3] has as its system splenic NK cells. As to the kind of experiment: Immunosuppression effects in mouse splenic natural killer (NK) cells. It counts as in vivo. The method, then: Adult male Balb/C mice (12-14 weeks of age) from Harlan were used for the study. […] Spleens were harvested 30 min or 3 h post last dose and crushed immediately for cell subtype staining. Prior to fixation, fluorophore-labelled antibodies for CD19 (FITC; B cells), CD3e (PE; pan T cells) and DX5 (APC; NK cells) were incubated with splenocyte samples from each animal to allow for simultaneous, multiple subtype % analysis on the flow cytometer. The number of total spleen cells for each animal was measured by Scepter™ 2.0 Handheld Automated Cell Counter.
The absolute number of lymphocyte subtype population (e.g., splenic B, T and NK cells) was calculated from the percentage of each subtype times total spleen cells for each animal. A one way ANOVA, with Dunnett's post hoc test, was used to compare the splenic lymphocytes number of the vehicle and test compound groups. The a level was set at p<0.05. Data were presented as the mean SEM for each group.

A short description of series [4]: Rat colon fecal homogenate stability. It counts as in vitro ADME. Conditions: male, rat colon fecal homogenate supernatant, 10 μM, read-out: T½ (In vitro colonic stability, loss of pro-drug). The method, then: The objective of this study was to determine the stability of the present compounds in rat colon fecal homogenate, i.e. the half-life for decomposition in the presence of the β-glucuronidase in rat colon feces.
Following sacrifice of a naïve male rat (˜300 g) by cardiac puncture exsanguination, the colon was ligated and removed to an anaerobic chamber (AS-580, Anaerobe Systems). The fecal content was removed within the chamber and was diluted 1:10 (1 gram to 9 mL phosphate buffer) and then homogenized using a handheld Omni Tissue Master. The fecal homogenate was centrifuged at 2000 g for 10 min to remove bulk and the supernatant was removed and used for the incubations.
Test articles and a positive control (sulfasalazine) were prepared as 10 mM DMSO stocks. The final substrate concentration of each assay was 10 μM (30 μM for compound 5). Reactions were started by adding a 5 μL aliquot of diluted test compound stock into 300 μL of rat fecal supernatant-homogenate. At 0, 15, 30, 60, 90, and 120 min post reaction initiation, a 50 μL aliquot was removed into 200 μL of acetonitrile with 3% formic acid and an internal standard molecule. All samples were centrifuged at 2000 g for 10 min after which 50 μL of supernatant was diluted into 150 μL of water for analysis on an LC-MS system. In vitro half-lives for loss of pro-drug were calculated as follows: (T½=0.693/elimination rate constant).

The subject of series [5] is Janus kinase (JAK) family of enzymes, non-JAK enzymes, G-protein coupled receptors, ion channels and transporters. Kind of series: Affinity/potency profiling at JAK, non-JAK enzymes, receptors, ion channels and transporters.
Series [6] addresses JAK2 (Homo sapiens, UniProt O60674). As to the kind of experiment: Biochemical JAK kinase assay (LanthaScreen) JAK2.
Protocol: (§1) A panel of four LanthaScreen JAK biochemical assays (JAK1, 2, 3 and Tyk2) were carried in a common kinase reaction buffer (50 mM HEPES, pH 7.5, 0.01% Brij-35, 10 mM MgCl2, and 1 mM EGTA). Recombinant GST-tagged JAK enzymes and a GFP-tagged STAT1 peptide substrate were obtained from Life Technologies.
(§2) Serially diluted compounds were pre-incubated with each of the four JAK enzymes and the substrate in white 384-well microplates (Corning) at ambient temperature for 1 h. ATP was subsequently added to initiate the kinase reactions in 10 μL total volume, with 1% DMSO. […] The JAK1 kinase activity was also tested at 1 mM ATP concentration. […] The plates were allowed to incubate at ambient temperature for 1 h before being read on the EnVision reader (Perkin Elmer).
(§3) For dose-response analysis, percent inhibition data were plotted vs. compound concentrations, and IC50 values were determined from a 4-parameter robust fit model with the Prism software (GraphPad Software). Results were expressed as pIC50 (negative logarithm of IC50) and subsequently converted to pKi (negative logarithm of dissociation constant, Ki) using the Cheng-Prusoff equation.
Series [7] has as its target TYK2 (Homo sapiens, UniProt P29597). Kind of series: Biochemical JAK kinase assay (LanthaScreen) Tyk2.
Protocol: as §1, §2, §3

Some results are limits rather than exact numbers.

JAK2, sequence (O60674 whole entry): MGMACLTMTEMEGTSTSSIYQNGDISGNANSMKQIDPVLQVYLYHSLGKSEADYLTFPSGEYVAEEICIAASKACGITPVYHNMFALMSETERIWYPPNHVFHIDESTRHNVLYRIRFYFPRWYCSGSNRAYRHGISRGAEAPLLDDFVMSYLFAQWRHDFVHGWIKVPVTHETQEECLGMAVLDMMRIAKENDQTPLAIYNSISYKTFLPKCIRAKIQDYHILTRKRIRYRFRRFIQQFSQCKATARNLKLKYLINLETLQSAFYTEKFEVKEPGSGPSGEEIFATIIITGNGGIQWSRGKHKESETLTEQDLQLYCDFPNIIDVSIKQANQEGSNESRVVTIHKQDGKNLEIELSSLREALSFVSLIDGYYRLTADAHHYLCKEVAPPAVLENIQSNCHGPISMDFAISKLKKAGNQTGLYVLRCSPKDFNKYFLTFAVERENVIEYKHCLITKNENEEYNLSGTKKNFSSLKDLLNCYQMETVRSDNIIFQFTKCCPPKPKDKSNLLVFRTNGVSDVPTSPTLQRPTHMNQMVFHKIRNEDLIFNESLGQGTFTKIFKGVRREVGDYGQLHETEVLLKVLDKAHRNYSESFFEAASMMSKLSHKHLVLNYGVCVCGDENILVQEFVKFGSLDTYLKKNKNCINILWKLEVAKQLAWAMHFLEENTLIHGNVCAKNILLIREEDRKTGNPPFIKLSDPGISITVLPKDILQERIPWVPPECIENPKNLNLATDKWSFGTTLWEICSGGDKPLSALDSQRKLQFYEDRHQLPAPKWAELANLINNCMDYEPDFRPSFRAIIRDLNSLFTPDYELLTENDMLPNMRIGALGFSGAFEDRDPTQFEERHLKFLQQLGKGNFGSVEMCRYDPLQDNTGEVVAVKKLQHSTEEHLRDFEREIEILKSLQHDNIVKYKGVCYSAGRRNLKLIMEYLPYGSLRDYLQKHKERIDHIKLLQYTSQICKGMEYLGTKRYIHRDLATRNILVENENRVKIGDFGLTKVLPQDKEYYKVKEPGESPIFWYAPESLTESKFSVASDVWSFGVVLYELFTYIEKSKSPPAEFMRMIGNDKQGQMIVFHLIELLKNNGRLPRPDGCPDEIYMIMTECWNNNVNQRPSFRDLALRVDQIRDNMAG
TYK2, sequence (P29597 whole entry): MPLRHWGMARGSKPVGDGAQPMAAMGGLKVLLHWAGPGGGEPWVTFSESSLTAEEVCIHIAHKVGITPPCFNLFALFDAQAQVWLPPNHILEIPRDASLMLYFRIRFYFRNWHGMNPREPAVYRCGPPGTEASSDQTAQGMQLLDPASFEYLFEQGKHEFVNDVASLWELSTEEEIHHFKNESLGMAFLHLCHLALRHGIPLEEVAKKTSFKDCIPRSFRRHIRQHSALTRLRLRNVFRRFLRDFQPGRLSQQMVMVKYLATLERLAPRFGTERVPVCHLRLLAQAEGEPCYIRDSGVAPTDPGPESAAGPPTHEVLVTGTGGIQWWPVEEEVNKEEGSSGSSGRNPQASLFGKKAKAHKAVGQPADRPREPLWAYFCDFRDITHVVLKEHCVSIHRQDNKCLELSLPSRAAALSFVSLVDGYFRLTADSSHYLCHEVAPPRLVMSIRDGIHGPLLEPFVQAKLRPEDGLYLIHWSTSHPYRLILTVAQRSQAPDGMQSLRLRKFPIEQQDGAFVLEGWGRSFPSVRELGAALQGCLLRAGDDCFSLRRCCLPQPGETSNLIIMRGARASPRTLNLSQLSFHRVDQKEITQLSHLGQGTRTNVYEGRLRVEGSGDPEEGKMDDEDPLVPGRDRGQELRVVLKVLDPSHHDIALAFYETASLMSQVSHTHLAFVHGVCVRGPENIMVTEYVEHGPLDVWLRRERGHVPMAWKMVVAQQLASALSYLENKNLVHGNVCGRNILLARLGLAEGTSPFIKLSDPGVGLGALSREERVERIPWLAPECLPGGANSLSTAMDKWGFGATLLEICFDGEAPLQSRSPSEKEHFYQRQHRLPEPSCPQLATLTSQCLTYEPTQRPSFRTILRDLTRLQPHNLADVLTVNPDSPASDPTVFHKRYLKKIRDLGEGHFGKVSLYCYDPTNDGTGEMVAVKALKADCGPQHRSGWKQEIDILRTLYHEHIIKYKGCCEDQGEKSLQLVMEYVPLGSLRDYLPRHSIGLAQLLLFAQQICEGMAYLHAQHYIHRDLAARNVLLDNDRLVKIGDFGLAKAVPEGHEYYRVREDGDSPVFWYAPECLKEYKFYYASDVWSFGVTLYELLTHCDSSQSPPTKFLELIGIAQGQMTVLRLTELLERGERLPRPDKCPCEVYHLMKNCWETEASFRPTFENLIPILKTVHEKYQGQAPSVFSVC

With `C[C@@H]1CCN(C(=O)CC#N)C[C@@H]1N(C)c1ncnc2c1ccn2C(=O)N(C)CCN(C)C(=O)OCc1ccc(O[C@@H]2O[C@H](C(=O)O)[C@@H](O)[C@H](O)[C@H]2O)c([N+](=O)[O-])c1` [Compound 1, (2S,3S,4S,5R,6S)-6-(4-((((2-(4-(((3R,4R)-1-(2-cyanoacetyl)-4-methylpiperidin-3-yl)(methyl)amino)-N-methyl-7H-pyrrolo[2,3-d]pyrimidine-7-carboxamido)ethyl)(methyl)carbamoyl)oxy)methyl)-2-nitrophenoxy)-3,4,5-trihydroxytetrahydro-2H-pyran-2-carboxylic acid], the half-life is listed as less than 5 min in series [1] (Colon content), greater than 60 min in series [1] (Duodenum content) and greater than 60 min in series [1] (Jejunum content). In addition, the half-life at 10 μM in series [1] (colon lumen content, Colon content) was less than 5 min; in series [1] (duodenum lumen content, Duodenum content), greater than 60 min; in series [1] (ileum lumen content, Ileum content), 34 min; in series [1] (jejunum lumen content, Jejunum content), greater than 60 min; in series [4], 1 to 15 min. For the same compound, in series [2], the “increase in tofacitinib concentration in cecum, proximal, and distal colon tissue versus oral tofacitinib” value is given as “five- to seven-fold”. Further, in series [3] (PO (BID) doses up to 10 mg/kg (maximum dose tested), three days, naïve mice), the “splenic NK cell counts” value is “unaffected”. For the same compound, the “Systemic functional activity (splenic NK depletion)” value in series [3] (mouse, oral dosing for three days) is reported as greater than 10 mg/kg. In series [5], the “affinity for, or potency at, JAK enzymes, non-JAK enzymes, GPCRs, ion channels and transporters” value is “no significant affinity for, or potency at”. For the same compound, the Ki in series [6] is greater than 631 nM; in series [7], greater than 1000 nM.

In general, Ki refers to the dissociation constant of the complex between target and ligand, obtained from inhibition or displacement.
